# Patent US20220143061A1, “3'3'-CYCLIC DINUCLEOTIDES AND PRODRUGS THEREOF” (INSTITUTE OF ORGANIC CHEMISTRY AND BIOCHEMISTRY ASCR, V.V.I., priority 2019, published 2022)
# Where two headings read alike, the source gives them in different places.
# Columns and labels:
# WT STING = molecular target: T1, WT STING (Homo sapiens, UniProt Q86WV6, H232R); assay: Differential Scanning Fluorimetry with WT STING; assay type: binding; details: thermal shift vs apoprotein; 150 μM CDN; truncated WT STING 0.1 mg/ml
# T1 construct: 8xHis (N, cleaved yes); SUMO (N, cleaved yes); made in house
# T1 sequence (Q86WV6 140-343 H232R): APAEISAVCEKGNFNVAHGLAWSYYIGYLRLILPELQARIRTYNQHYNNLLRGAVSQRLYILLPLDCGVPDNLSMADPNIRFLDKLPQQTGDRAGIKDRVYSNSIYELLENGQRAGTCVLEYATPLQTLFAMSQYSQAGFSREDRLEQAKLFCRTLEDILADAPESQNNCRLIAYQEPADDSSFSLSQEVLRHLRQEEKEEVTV
# Procedure: (§1) Purified PCR products were cleaved with restriction enzymes BamHI (cat. #R0136S, NEB, Ipswich, USA) and NotI (cat. #R0189S, NEB, Ipswich, USA) and cloned into the pSUMO vector linearized with the identical enzymes.
# (§2) DNase I (cat. #D5025, Sigma Aldrich, Czech Republic) and RNase A (cat. #R6513, Sigma Aldrich, Czech Republic) were added (final concentration 50 μg/ml) together with MgCl2 (final concentration 5 mmol·l^−1) to the homogenate and bacteria were lysed using French Press G-M™ High-Pressure Cell Press Homogenizer (1500 psi, 3 cycles). […] The resin was poured into a chromatography column, washed with 50 ml buffer A (50 mmol·l^−1 TrisCl (pH 8.0), 800 mmol·l^−1 NaCl, 3 mmol·l^−1 β-mercaptoethanol; 10% glycerol; 20 mmol·l^−1 imidazole) and 8-His-SUMO tagged STING proteins were eluted with 15 ml buffer A containing 300 mmol·l^−1 imidazole. […] Proteins were concentrated with Amicon® Ultra-15 10 K device (cat. #UFC901008, Merck Millipore, Billerica, USA) and flash frozen in liquid N2.
# (§3) 20 μL solutions of the reaction mixtures were pipetted in triplicates into 96 well optical reaction plates and thermal denaturation of samples were performed on real time PCR cycler (LightCycler® 480 Instrument II—Roche, Basel, Switzerland). The first derivative of the thermal denaturation curves was performed to calculate denaturing temperatures of STING-CDN complexes and STING apoproteins. The thermal shift for each CDN was calculated by subtracting the average denaturing temperature of STING apoprotein from the average denaturing temperature of STING CDN complex.
# AQ STING (G230A-R293Q) = molecular target: T2, AQ STING (G230A-R293Q) (Homo sapiens, UniProt Q86WV6, G230A/H232R/R293Q); assay: Differential Scanning Fluorimetry with AQ STING; assay type: binding; details: thermal shift vs apoprotein; 150 μM CDN; truncated AQ STING 0.1 mg/ml
# T2 construct: 8xHis (N, cleaved yes); SUMO (N, cleaved yes); made in house
# T2 sequence (Q86WV6 140-343 G230A/H232R/R293Q): as the sequence (Q86WV6 140-343 H232R) above, with G91A, R154Q counted along it
# Procedure: as §1, §2, §3
# [1] = molecular target: T3, human wild type STING (WT STING) (Homo sapiens, UniProt Q86WV6, H232R); assay: 293T WT STING standard reporter assay; assay type: cell-based; details: no digitonin, 7 hours, ISRE firefly luciferase
# T3 construct: host or cells: 293T cells (ATCC CRL-3216), stably double transfected with pUNO1-hSTING-WT and pGL64.27-4×ISRE
# T3 sequence (Q86WV6 whole entry H232R): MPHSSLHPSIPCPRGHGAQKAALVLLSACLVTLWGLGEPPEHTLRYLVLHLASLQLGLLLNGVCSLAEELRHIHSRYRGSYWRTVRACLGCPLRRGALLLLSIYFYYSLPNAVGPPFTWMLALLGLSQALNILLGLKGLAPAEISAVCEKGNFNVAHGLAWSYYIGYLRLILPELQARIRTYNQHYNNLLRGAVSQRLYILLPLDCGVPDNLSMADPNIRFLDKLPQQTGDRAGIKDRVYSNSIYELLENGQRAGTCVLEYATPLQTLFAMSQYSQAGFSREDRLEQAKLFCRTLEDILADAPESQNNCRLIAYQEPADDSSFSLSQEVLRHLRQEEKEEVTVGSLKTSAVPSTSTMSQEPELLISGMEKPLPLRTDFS
# Description: (§4) Two complementary oligonucleotides of the sequence […] […] […] […] […] The oligonucleotides were mixed in equal molar amounts, hybridized, and cleaved by restriction endonucleases HindIII (cat. #. R0104S, NEB, Ipswich, USA) and BglII (cat. #R0144S, NEB, Ipswich, USA). Ultimately, they were ligated into plasmid pGL4.27 (cat. #E6651, Promega, Madison, USA) linearized with the same enzymes. As result the sequence with four ISRE sites was placed upstream of the minimum promoter of firefly luciferase reporter gene.
# (§5) After 5 minutes incubation at room temperature (RT), 250 μL of the mixture was added dropwise to the cells in one well. Cells were incubated 36 hours at 37° C. with 5% CO2, and then detached with 0.05% Trypsin and 0.22 g/L EDTA (both cat. #L0941, Biowest, Riverside, USA).
# (§6) Transfected cells were seeded onto poly-D-lysine coated six well plates at density 50,000 cells per 1 cm^2 in DMEM medium with high glucose containing 10% heat inactivated FBS, 30 μg/mL blasticidin (cat. #ant-b1-05, InvivoGen, San Diego, USA), 0.06 mg/ml Penicillin G and 0.1 mg/ml Streptomycin Sulfate (both cat. #. L0018, Biowest, Riverside, USA). The medium was replenished every 3-4 days until visible colonies of cells resistant to blasticidin were formed.
# (§7) Blasticidin resistant cells stably expressing WT STING were further transfected with pGL64.27-4×ISRE plasmid following the same procedure as described above. […] Homogeneous culture of stably double transfected cells was prepared by limiting dilution of cells in 96 well plates and wells with cells were selected that originated from a single cell.
# The medium was removed the next day and three-fold serial dilutions of compounds in 100 μl medium were added to the cells. The plates were incubated for 7 hours at 37° C. with 5% CO2. Next 50 μl of the medium was removed from wells, and 30 μl of ONE-Glo™ Luciferase Assay System reagent (cat. #E6120, Promega, Madison, USA) was added to each well. Luminescence was read on Synergy H1 (Biotek, Winooski, USA).
# [2] = molecular target: T3, human wild type STING (WT STING); assay: Digitonin assay using 293T wtSTING-FL reporter cells; assay type: cell-based; details: 293T wtSTING-FL cells, digitonin buffer 30 minutes, then 5 hours; ISRE firefly luciferase
# Description: as §4, §5, §6, §7
# The medium was removed next day and three fold serial dilutions of compounds in Digitonin buffer containing 50 mmol·l^−1 HEPES (cat. #H3375, Sigma Aldrich, Czech Republic) pH 7.0, 100 mmol·l^−1 KCl, 3 mmol·l^−1 MgCl2, 0.1 mmol·l^−1 DTT (cat. #D0632, Sigma Aldrich, Czech Republic), 85 mmol·l^−1 Sucrose (cat. #S7903, Sigma Aldrich, Czech Republic), 0.2% BSA (cat. #A2153, Sigma Aldrich, Czech Republic), 1 mmol·l^−1 ATP (cat. #A1852, Sigma Aldrich, Czech Republic), 0.1 mmol·l^−1 GTP (cat. #G8877, Sigma Aldrich, Czech Republic), and 10 μg/mL Digitonin A (cat. #D141, Sigma Aldrich, Czech Republic) were added to the cells. The buffer was removed after 30 minutes incubation at 37° C. with 5% C02, the cells were washed once with 100 μl of cultivation medium, and 100 μl of medium was added to each well. The plates with cells were incubated for 5 hours at 37° C. with 5% CO2, 50 μl of the medium was removed and 30 μl of ONE-Glo™ Luciferase Assay System reagent (cat. #E6120, Promega, Madison, USA) was added to each well. Luminesce was read on Synergy H1 (Biotek, Winooski, USA).
# [3] = system: peripheral blood mononuclear cell (PBMC); assay: Peripheral blood mononuclear cell assay (cytokine levels); assay type: cell-based
# Procedure: Selected compounds were tested in an in vitro peripheral blood mononuclear cell (PBMC) assay. […] Serially diluted tested compounds were added to wells in 50 μl of cultivation medium and cell were incubated with compounds for 1 h at 37° C. with 5% CO2. Plates with cells were then spun 500 g for 5 minutes and medium was removed. Cells were washed twice with the cell culture medium by the use of centrifugation and gently resuspended in 100 μl medium without compounds. After 15 hour incubation at 37° C. with 5% CO2, the cell culture medium was collected and the levels of interferon-alpha (INF-α), interferon-gamma (INF-γ) and tumor necrosis factor-alpha (TNF-α) were determined with ProcartaPlex Assays (ThermoFisher, Waltham, USA) and MAGPIX System (Merck KGaA, Darmstadt, Germany). […] Values reported are an average of runs from one to four donors.
# [4] = 293T wtSTING-FL cells, read-out: 293T WT STING EC50
# [5] = 1 h with compound, wash, 15 hour incubation, average of one to four donors, read-out: PBMC EC50 IFN-α
# [6] = 1 h with compound, wash, 15 hour incubation, average of one to four donors, read-out: PBMC EC50 IFN-γ
# [7] = 1 h with compound, wash, 15 hour incubation, average of one to four donors, read-out: PBMC EC50 TNF-α
# [8] = 293T WT STING EC50, 293T wtSTING-FL cells
# [9] = read-out: PBMC EC50 IFN-α, 1 h with compound, wash, 15 hour incubation, average of one to four donors
# [10] = read-out: PBMC EC50 IFN-γ, 1 h with compound, wash, 15 hour incubation, average of one to four donors
Compound,"EC50 [1, 4]","EC50 [3, 5]","EC50 [3, 6]","EC50 [3, 7]",also measured
"Nc1ncnc2c1ncn2[C@@H]1O[C@@H]2COP(=O)(S)O[C@H]3[C@@H](F)[C@H](n4cnc5c(N)ncnc54)O[C@@H]3COP(=O)(S)CO[C@H]2[C@H]1F (single isomer, unassigned) [Compound 14a]",15000 nM,–,–,–,DSF ΔTm WT STING (WT STING): 8.3 °C; DSF ΔTm AQ STING (AQ STING (G230A-R293Q)): 16.1 °C; EC50 [2]: 60 nM
"CC(C)OC(=O)OCOP1(=O)CO[C@H]2[C@@H](F)[C@H](n3cnc4c(N)ncnc43)O[C@@H]2COP(=O)(OCOC(=O)OC(C)C)O[C@H]2[C@@H](F)[C@H](n3cnc4c(N)ncnc43)O[C@@H]2CO1 (single isomer, unassigned) [Compound 42c]",50 nM,600 nM,300 nM,600 nM,–
"CCCCCCCCCCCC(=O)OCSP1(=O)CO[C@H]2[C@@H](F)[C@H](n3cnc4c(N)ncnc43)O[C@@H]2COP(=O)(SCOC(=O)CCCCCCCCCCC)O[C@H]2[C@@H](F)[C@H](n3cnc4c(N)ncnc43)O[C@@H]2CO1 (single isomer, unassigned) [Compound 43b]",–,–,–,–,"EC50 [1, 8]: 30 nM; EC50 [3, 9]: 400 nM; EC50 [3, 10]: 300 nM; EC50 ([3]; read-out: PBMC EC50 TNF-α, PBMC, 1 h with compound, wash, 15 hour incubation, average of one to four donors): 200 nM"
"CCCCCCCCCCCC(=O)OCSP1(=O)CO[C@H]2[C@@H](F)[C@H](n3cnc4c(N)ncnc43)O[C@@H]2COP(=O)(SCOC(=O)CCCCCCCCCCC)O[C@H]2[C@@H](F)[C@H](n3cnc4c(N)ncnc43)O[C@@H]2CO1 (single isomer, unassigned) [Compound 43c]",–,–,–,–,"EC50 [1, 8]: 60 nM; EC50 [3, 9]: 900 nM; EC50 [3, 10]: 100 nM; EC50 ([3]; read-out: PBMC EC50 TNF-α, 1 h with compound, wash, 15 hour incubation, average of one to four donors): 300 nM"
"CCC(C)(C)C(=O)OCOP1(=O)CO[C@H]2[C@@H](F)[C@H](n3cnc4c(N)ncnc43)O[C@@H]2COP(=O)(OCOC(=O)C(C)(C)CC)O[C@H]2[C@@H](F)[C@H](n3cnc4c(N)ncnc43)O[C@@H]2CO1 (single isomer, unassigned) [Compound 44a]",10 nM,1000 nM,500 nM,600 nM,–
"CCC(C)(C)C(=O)OCOP1(=O)CO[C@H]2[C@@H](F)[C@H](n3cnc4c(N)ncnc43)O[C@@H]2COP(=O)(OCOC(=O)C(C)(C)CC)O[C@H]2[C@@H](F)[C@H](n3cnc4c(N)ncnc43)O[C@@H]2CO1 (single isomer, unassigned) [Compound 44c]",6 nM,100 nM,1700 nM,1000 nM,–
"CC1(C(=O)OCOP2(=O)CO[C@H]3[C@@H](F)[C@H](n4cnc5c(N)ncnc54)O[C@@H]3COP(=O)(OCOC(=O)C3(C)CCCCC3)O[C@H]3[C@@H](F)[C@H](n4cnc5c(N)ncnc54)O[C@@H]3CO2)CCCCC1 (single isomer, unassigned) [Compound 45a]",60 nM,1000 nM,8000 nM,500 nM,–
"CC1(C(=O)OCOP2(=O)CO[C@H]3[C@@H](F)[C@H](n4cnc5c(N)ncnc54)O[C@@H]3COP(=O)(OCOC(=O)C3(C)CCCCC3)O[C@H]3[C@@H](F)[C@H](n4cnc5c(N)ncnc54)O[C@@H]3CO2)CCCCC1 (single isomer, unassigned) [Compound 45c]",70 nM,300 nM,200 nM,400 nM,–
"CCCCCCCC(=O)OCOP1(=O)CO[C@H]2[C@@H](F)[C@H](n3cnc4c(N)ncnc43)O[C@@H]2COP(=O)(OCOC(=O)CCCCCCC)O[C@H]2[C@@H](F)[C@H](n3cnc4c(N)ncnc43)O[C@@H]2CO1 (single isomer, unassigned) [Compound 46a]",5 nM,3 nM,–,1 nM,–
"CCCCCCCC(=O)OCOP1(=O)CO[C@H]2[C@@H](F)[C@H](n3cnc4c(N)ncnc43)O[C@@H]2COP(=O)(OCOC(=O)CCCCCCC)O[C@H]2[C@@H](F)[C@H](n3cnc4c(N)ncnc43)O[C@@H]2CO1 (single isomer, unassigned) [Compound 46c]",1 nM,20 nM,–,10 nM,–
"Nc1nc2c(ncn2[C@@H]2O[C@@H]3COP(=O)(O)O[C@@H]4[C@H](O)[C@@H](COP(=O)(O)O[C@@H]2[C@@H]3O)O[C@H]4n2cnc3c(N)ncnc32)c(=O)[nH]1 [2′2′-cGAMP, reference compound]",10200 nM,–,–,–,DSF ΔTm AQ STING (AQ STING (G230A-R293Q)): 19.4 °C; EC50 [2]: 30 nM
"Nc1ncnc2c1ncn2[C@@H]1O[C@@H]2COP(=O)(O)O[C@H]3[C@@H](O)[C@H](n4cnc5c(N)ncnc54)O[C@@H]3COP(=O)(O)O[C@H]2[C@H]1O [3′3′-c-di-AMP, reference compound]",202000 nM,–,–,–,DSF ΔTm WT STING (WT STING): 2.5 °C; DSF ΔTm AQ STING (AQ STING (G230A-R293Q)): 9.0 °C; EC50 [2]: 300 nM
